Test results as given in US4347371A, “Disulfide compounds” (Santen Pharmaceutical Co., Ltd., priority 1978, dated 1982).
Where two headings read alike, the source gives them in different places.

How the values were obtained:
[1] = test system: angiotensin I-converting enzyme; test: Suppressive effect on the pressor response to angiotensin I in unanesthetized rats, oral administration (angiotensin I-converting enzyme inhibition); assay type: in vivo, Male Wistar strain rats; conditions: rat, angiotensin I 300 ng/kg i.v.
Description: As recently it has been clear that the compounds inhibiting angiotensin I-converting enzyme may be the curative potency against both renal hypertension and essential hypertension, the compounds [I] of this invention are evaluated as antihypertensive agents by the following method.
Male Wistar strain rats weighing 200-300 g were used. Under ether anesthesia, polyethylene cannulae are inserted into carotid artery and jugular vein. The cannula to carotid artery is connected to an electric transducer, while the cannula to jugular vein is connected to an apparatus for continuous infusion. After the complete recovery from anesthesia, angiotensin I is infused intravenously in a dose of 300 ng/kg by the apparatus for continuous infusion, and the pressor response is recorded by polygraph (Nihon Koden, RM-150). The compounds of this invention suspended in 0.5% tragacanth solution are administered orally in a dose of 0.3 ml per 100 g of body weight, and the pressor response to angiotensin I infused intravenously is measured with time.

Aldose reductase = target: T1, Aldose reductase (Rattus norvegicus, UniProt P07943); test: Inhibitory activity against aldose reductase purified from rat lenses (absorbance at 340 nm); assay type: biochemical
T1 construct: Aldose reductase is purified from rat lenses; from tissue; host or cells: rat lens

[2] = Acute toxicity test in mice, oral; parameters: species or system male ddy-std. strain mice; conditions: mouse, in vivo, male ddy-std. mice, 0.5% tragacanth suspension
Description: The male ddy-std. strain mice (4 weeks of age, weighing 19-21 g) were placed in a breeding room of constant temperature and humidity (23°±1° C., 55±5%) and fed freely pellet diet (CE-2, Clea Japan, Inc.) and water ad. libitum for a week. The mice showing the normal growth were selected for the experiment.
Test compound is suspended in 0.5% tragacanth solution, and administered orally in a dose of 0.5 ml per 20 g B.W.

[3] = pH 6.2, DL-glyceraldehyde 4×10^-4 M, NADPH 5×10^-5 M, read-out: IC50 (molar concentration producing 50% inhibition of aldose reductase)

IC50 (Aldose reductase; [3]) [nM]	Compound	Inhibition (%) of pressor response to angiotensin I ([1]; dose 1.0 mg/kg oral, 25 min) [%]	Inhibition (%) of pressor response to angiotensin I ([1]; dose 1.0 mg/kg oral, 65 min) [%]	further results
–	O=C(O)C1CCC(c2ccccc2O)N1C(=O)CCS (single isomer, unassigned) [Compound 27A, α-(+)5-(2-hydroxyphenyl)-1-(3-mercaptopropanoyl)-2-pyrrolidinecarboxylic acid, reference compound]	–	–	Inhibition (%) of pressor response to angiotensin I ([1]; dose 1.3 mg/kg oral, 25 min): 70%; Inhibition (%) of pressor response to angiotensin I ([1]; dose 1.3 mg/kg oral, 65 min): 50%
–	O=C(O)C1CCC(c2ccccc2O)N1C(=O)CCSSCCC(=O)N1C(C(=O)O)CCC1c1ccccc1O (single isomer, unassigned) [Compound 27]	–	–	Inhibition (%) of pressor response to angiotensin I ([1]; dose 1.3 mg/kg oral, 25 min): 65%; Inhibition (%) of pressor response to angiotensin I ([1]; dose 1.3 mg/kg oral, 65 min): 55%
–	O=C(O)[C@@H]1CSC(c2ccccc2O)N1C(=O)CCS (stereo partly drawn) [Compound 1A, (4R)2-(2-hydroxyphenyl)-3-(3-mercaptopropanoyl)-4-thiazolidinecarboxylic acid, reference compound]	55	35	–
97	C[C@H](CSSC[C@@H](C)C(=O)N1C(c2ccccc2O)SC[C@H]1C(=O)O)C(=O)N1C(c2ccccc2O)SC[C@H]1C(=O)O (stereo partly drawn) [Compound 2, (4R,4'R)-3,3'-[3,3'-Dithiobis[(2S)-2-methylpropanoyl]]bis[2-(2-hydroxyphenyl)-4-thiazolidinecarboxylic acid]]	–	–	Inhibition (%) of pressor response to angiotensin I ([1]; dose 1.4 mg/kg oral, 25 min): 30%; Inhibition (%) of pressor response to angiotensin I ([1]; dose 1.4 mg/kg oral, 65 min): 35%
–	C[C@H](CS)C(=O)N1C(c2ccccc2O)SC[C@H]1C(=O)O (stereo partly drawn) [Compound 2A, (4R)2-(2-hydroxyphenyl)-3-[(2S)-3-mercapto-2-methylpropanoyl]-4-thiazolidinecarboxylic acid, reference compound]	–	–	Inhibition (%) of pressor response to angiotensin I ([1]; dose 1.4 mg/kg oral, 25 min): 40%; Inhibition (%) of pressor response to angiotensin I ([1]; dose 1.4 mg/kg oral, 65 min): 30%
96	O=C(O)[C@@H]1CSC(c2ccccc2O)N1C(=O)CCCSSCCCC(=O)N1C(c2ccccc2O)SC[C@H]1C(=O)O (stereo partly shown) [Compound 4]	–	–	–
200	O=C(O)[C@@H]1CSC(c2ccccc2)N1C(=O)CCSSCCC(=O)N1C(c2ccccc2)SC[C@H]1C(=O)O (stereo partly shown) [Compound 7]	–	–	–
450	Cc1ccc(C2SC[C@@H](C(=O)O)N2C(=O)[C@H](C)CSSC[C@@H](C)C(=O)N2C(c3ccc(C)cc3)SC[C@H]2C(=O)O)cc1 (stereo partly drawn) [Compound 8, (4R,4'R)-3,3'-[3,3'-dithiobis[(2S)-2-methylpropanoyl]]bis[2-(4-methylphenyl)-4-thiazolidinecarboxylic acid]]	–	–	–
730	O=C(O)[C@@H]1CSC(c2cccc(O)c2)N1C(=O)CCSSCCC(=O)N1C(c2cccc(O)c2)SC[C@H]1C(=O)O (stereo partly shown) [Compound 10]	–	–	–
640	C[C@H](CSSC[C@@H](C)C(=O)N1C(c2cc(Cl)ccc2O)SC[C@H]1C(=O)O)C(=O)N1C(c2cc(Cl)ccc2O)SC[C@H]1C(=O)O (stereo partly drawn) [Compound 11, (4R,4'R)-3,3'-[3,3'-dithiobis[(2S)-2-methylpropanoyl]]bis[2-(5-chloro-2-hydroxyphenyl)-4-thiazolidinecarboxylic acid]]	–	–	–
310	O=C(O)[C@@H]1CSC(c2ccccc2O)N1C(=O)CSSCC(=O)N1C(c2ccccc2O)SC[C@H]1C(=O)O (stereo partly shown) [Compound 15]	–	–	–
870	C[C@H](CSSC[C@@H](C)C(=O)N1C(c2cccc3ccccc23)SC[C@H]1C(=O)O)C(=O)N1C(c2cccc3ccccc23)SC[C@H]1C(=O)O (stereo partly shown) [Compound 24]	–	–	–
860	CCCSSCCC(=O)N1C(c2ccccc2O)SC[C@H]1C(=O)O (stereo partly drawn) [Compound 34, (4R)-2-(2-Hydroxyphenyl)-3-(3-propyldisulfanylpropanoyl)-4-thiazolidinecarboxylic acid]	45	55	–
–	COc1ccc(C2SC[C@@H](C(=O)O)N2C(=O)[C@H](C)CS)cc1 (stereo partly drawn) [Compound 37A, (4R)3-[(2S)-3-mercapto-2-methylpropanoyl]-2-(4-methoxyphenyl)-4-thiazolidinecarboxylic acid, reference compound]	40	20	–
–	C=CCSSC[C@@H](C)C(=O)N1C(c2ccc(OC)cc2)SC[C@H]1C(=O)O (stereo partly shown) [Compound 37]	60	35	–
840	O=C(O)[C@@H]1CSC(c2ccccc2O)N1C(=O)CCSSCC1CCCO1 (stereo partly shown) [Compound 39]	–	–	–
20	O=C(O)CCSSCCC(=O)N1C(c2ccccc2O)SC[C@H]1C(=O)O (stereo partly drawn) [Compound 41, (4R)-3-[3-(2-Carboxyethyldisulfanyl)propanoyl]-2-(2-hydroxyphenyl)-4-thiazolidinecarboxylic acid]	–	–	Inhibition (%) of pressor response to angiotensin I ([1]; dose 1.3 mg/kg oral, 25 min): 50%; Inhibition (%) of pressor response to angiotensin I ([1]; dose 1.3 mg/kg oral, 65 min): 60%
–	CCCSSC[C@@H](C)C(=O)N1CSC[C@H]1C(=O)O [Compound 43, (4R)-3-[(2S)-2-methyl-3-propyldisulfanylpropanoyl]-4-thiazolidinecarboxylic acid]	70	40	–
–	C[C@H](CS)C(=O)N1CSC[C@H]1C(=O)O [Compound 43A, (4R)3-[(2S)-3-mercapto-2-methylpropanoyl]-4-thiazolidinecarboxylic acid, reference compound]	50	30	–
–	CC(C)(C)C(=O)OCOC(=O)[C@@H]1CSC(c2ccccc2O)N1C(=O)CCSSCCC(=O)N1C(c2ccccc2O)SC[C@H]1C(=O)OCOC(=O)C(C)(C)C (stereo partly drawn) [Compound 49, Bis[(2,2-dimethyl-1-oxopropoxy)methyl](4R,4'R)-3,3'-[3,3'-dithiobis(propanoyl)]bis[2-(2-hydroxyphenyl)-4-thiazolidinecarboxylate]]	–	–	Inhibition (%) of pressor response to angiotensin I ([1]; dose 1.3 mg/kg oral, 25 min): 35%; Inhibition (%) of pressor response to angiotensin I ([1]; dose 1.3 mg/kg oral, 65 min): 60%
–	C[C@@H]1O[C@@H](Oc2c(-c3ccc(O)c(O)c3)oc3cc(O)cc(O)c3c2=O)[C@H](O)[C@H](O)[C@H]1O [Control, Quercitrin, reference compound]	–	–	IC50 (Aldose reductase): 90 nM

Compound	IC50 (Aldose reductase; [3]) [nM]	Inhibition (%) of pressor response to angiotensin I ([1]; dose 1.0 mg/kg oral, 25 min) [%]	Inhibition (%) of pressor response to angiotensin I ([1]; dose 1.0 mg/kg oral, 65 min) [%]	further results
O=C(O)[C@@H]1CSC(c2ccccc2O)N1C(=O)CCSSCCC(=O)N1C(c2ccccc2O)SC[C@H]1C(=O)O (stereo partly drawn) [Compound 1, (4R,4'R)-3,3'-[3,3'-Dithiobis(propanoyl)]bis[2-(2-hydroxyphenyl)-4-thiazolidinecarboxylic acid]]	97	45	55	LD50 [2]: 15000 mg/kg
CC(=O)Oc1ccccc1C1SC[C@@H](C(=O)O)N1C(=O)CCSSCCC(=O)N1C(c2ccccc2OC(C)=O)SC[C@H]1C(=O)O (stereo partly drawn) [Compound 3, (4R,4'R)-3,3'-[3,3'-Dithiobis(propanoyl)]bis[2-(2-acetoxyphenyl)-4-thiazolidinecarboxylic acid]]	870	15	55	–
